# Results: ChEMBL document CHEMBL3102856, “The marine cyanobacterial metabolite gallinamide A is a potent and selective inhibitor of human cathepsin L” (J Nat Prod, 2014)
# Activity calls are given as the source filed them. The calls are words filed in the database; no cut-off is given here.
# What was measured:
# Pro-cathepsin H [1] = molecular target: T1, Pro-cathepsin H (Homo sapiens, UniProt P09668); assay: Inhibition of human Cathepsin H using Arg-aminomethylcoumarin as substrate
# T1 sequence (P09668 whole entry): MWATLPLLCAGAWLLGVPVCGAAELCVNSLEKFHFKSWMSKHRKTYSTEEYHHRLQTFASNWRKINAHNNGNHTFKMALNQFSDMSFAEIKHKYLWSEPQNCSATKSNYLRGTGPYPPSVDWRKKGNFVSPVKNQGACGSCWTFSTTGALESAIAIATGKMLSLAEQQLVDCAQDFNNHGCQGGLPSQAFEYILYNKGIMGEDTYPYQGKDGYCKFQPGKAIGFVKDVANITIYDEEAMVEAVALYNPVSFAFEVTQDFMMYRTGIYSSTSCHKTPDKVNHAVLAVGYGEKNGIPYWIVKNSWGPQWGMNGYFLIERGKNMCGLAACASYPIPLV
# Cathepsin B [2] = molecular target: T2, Cathepsin B (Homo sapiens, UniProt P07858); assay: Inhibition of human Cathepsin B using Z-Phe-Arg-aminomethylcoumarin as substrate preincubated for 30 mins followed by substrate addition
# Procathepsin L [3] = molecular target: T3, Procathepsin L (Homo sapiens, UniProt P07711); assay: Inhibition of recombinant human Cathepsin L using Z-Phe-Arg-aminomethylcoumarin as substrate
# Homo sapiens [4] = organism: Homo sapiens; assay: Selectivity index, ratio of IC50 for human Cathepsin V to IC50 for recombinant human Cathepsin L using Z-Phe-Arg-aminomethylcoumarin as substrate preincubated for 30 mins followed by substrate addition
# Cathepsin L2 [5] = molecular target: T4, Cathepsin L2 (Homo sapiens, UniProt O60911); assay: Inhibition of human Cathepsin V using Z-Phe-Arg-aminomethylcoumarin as substrate
# T4 sequence (O60911 whole entry): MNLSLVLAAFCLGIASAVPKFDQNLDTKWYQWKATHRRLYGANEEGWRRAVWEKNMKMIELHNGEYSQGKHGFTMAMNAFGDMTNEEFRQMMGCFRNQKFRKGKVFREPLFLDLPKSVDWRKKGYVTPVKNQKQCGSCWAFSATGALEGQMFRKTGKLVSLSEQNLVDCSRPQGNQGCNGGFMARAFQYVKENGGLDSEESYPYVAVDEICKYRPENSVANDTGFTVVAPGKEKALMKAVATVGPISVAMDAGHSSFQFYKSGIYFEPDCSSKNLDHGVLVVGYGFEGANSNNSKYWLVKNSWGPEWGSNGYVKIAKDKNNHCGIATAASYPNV
# Procathepsin L [6] = molecular target: T3, Procathepsin L; assay: Irreversible inhibition of recombinant human cathepsin L using Z-Phe-Arg-aminomethylcoumarin as substrate
# Target sequence in this assay (P07711 whole entry): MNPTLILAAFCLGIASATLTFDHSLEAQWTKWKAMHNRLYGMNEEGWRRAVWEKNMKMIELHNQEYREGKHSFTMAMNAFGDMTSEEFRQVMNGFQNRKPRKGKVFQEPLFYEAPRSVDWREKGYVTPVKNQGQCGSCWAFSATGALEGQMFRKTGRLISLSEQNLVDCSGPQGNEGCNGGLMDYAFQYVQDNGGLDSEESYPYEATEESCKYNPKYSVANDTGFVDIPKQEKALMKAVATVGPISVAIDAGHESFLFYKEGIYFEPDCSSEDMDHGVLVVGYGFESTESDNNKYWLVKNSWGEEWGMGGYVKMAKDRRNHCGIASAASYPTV
# Homo sapiens [7] = organism: Homo sapiens; assay: Selectivity index, ratio of IC50 for human Cathepsin B to IC50 for recombinant human Cathepsin L after 30 mins using Z-Phe-Arg-aminomethylcoumarin as substrate preincubated for 30 mins followed by substrate addition
# Homo sapiens [8] = organism: Homo sapiens; assay: Selectivity index, ratio of IC50 for human Cathepsin B to IC50 for recombinant human Cathepsin L using Z-Phe-Arg-aminomethylcoumarin as substrate
# Cathepsin L2 [9] = molecular target: T4, Cathepsin L2; assay: Inhibition of human Cathepsin V using Z-Phe-Arg-aminomethylcoumarin as substrate preincubated for 30 mins followed by substrate addition
# Procathepsin L [10] = molecular target: T3, Procathepsin L; assay: Inhibition of recombinant human Cathepsin L using Z-Phe-Arg-aminomethylcoumarin as substrate preincubated for 30 mins followed by substrate addition
# Target sequence in this assay (P07711 whole entry): as above
# Cathepsin B [11] = molecular target: T2, Cathepsin B; assay: Inhibition of human Cathepsin B using Z-Phe-Arg-aminomethylcoumarin as substrate
# Homo sapiens [12] = organism: Homo sapiens; assay: Selectivity index, ratio of IC50 for human Cathepsin V to IC50 for recombinant human Cathepsin L using Z-Phe-Arg-aminomethylcoumarin as substrate
# Pro-cathepsin H [13] = molecular target: T1, Pro-cathepsin H; assay: Inhibition of human Cathepsin H using Arg-aminomethylcoumarin as substrate preincubated for 30 mins followed by substrate addition
# Procathepsin L [14] = molecular target: T3, Procathepsin L; assay: Irreversible inhibition of recombinant human Cathepsin L using Z-Phe-Arg-aminomethylcoumarin as substrate assessed as residual activity at 10 fold IC50 preincubated for 30 mins followed by 100 fold dilution measured for 2 hrs by fluorescence assay
# Target sequence in this assay (P07711 114-333 limits assumed): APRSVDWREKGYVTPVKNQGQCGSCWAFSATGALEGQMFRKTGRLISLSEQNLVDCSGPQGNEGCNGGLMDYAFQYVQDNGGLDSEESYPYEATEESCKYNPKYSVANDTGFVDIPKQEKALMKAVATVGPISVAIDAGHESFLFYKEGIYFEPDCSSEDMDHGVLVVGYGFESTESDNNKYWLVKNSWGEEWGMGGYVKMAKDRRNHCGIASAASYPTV
# Procathepsin L [15] = molecular target: T3, Procathepsin L; assay: Inhibition of recombinant human Cathepsin L assessed as inhibition of activity-based probe DCG-04 labelling preincubated for 30 mins followed by DCG-04 addition measured after 30 mins
# Target sequence in this assay (P07711 114-333 limits assumed): as above
compound,measurement,setting,value
CC[C@H](C)[C@@H](C(=O)O[C@@H](CC(C)C)C(=O)N[C@@H](CC(C)C)C(=O)N[C@@H](C)/C=C/C(=O)N1C(=O)C=C(OC)[C@@H]1C)N(C)C [GALLINAMIDE A],IC50,Pro-cathepsin H [1],> 30000 nM
same,IC50,Cathepsin B [2],1700 nM
same,IC50,Procathepsin L [3],47 nM
same,inhibition,Procathepsin L [3]; TDE = time-dependent effect,tde
same,Ratio IC50,Homo sapiens [4],28
same,IC50,Cathepsin L2 [5],460 nM
same,Ki,Procathepsin L [6],9000 M⁻¹ s⁻¹
same,Ratio IC50,Homo sapiens [7],320
same,Ratio IC50,Homo sapiens [8],91
same,IC50,Cathepsin L2 [9],140 nM
same,IC50,Procathepsin L [10],5 nM
same,IC50,Cathepsin B [11],4200 nM
same,Ratio IC50,Homo sapiens [12],10
same,IC50,Pro-cathepsin H [13],> 30000 nM
same,inhibition,Procathepsin L [14],Active
same,inhibition,Procathepsin L [15],Dose-dependent effect
